Residues, ends and D or L forms follow the SMILES beside them.
Key:
[1] = system: Sprangue Dawley rats; assay: Increase in femur bone weight in rats after subcutaneous dosing; assay type: in vivo, rat; settings: 4.9 nmol/kg a day subcutaneously for two weeks; four-week-old male rats; dried right femur weight compared with vehicle group
Protocol: To four-week-old male Sprangue Dawley rats, the compounds synthesized in Example 1 […], and increases in the bone weight in their femurs were compared with that of a group to which a vehicle (0.15M NaCl, 0.001N hydrochloric acid and 2% heat-inactivated rat serum) was given. After administration, their right femurs were taken out, and the tissues around them were removed. Then, the femurs were dried at 100° C. for 3 hours and weighed.

[2] = molecular target: T1, PTH receptor (Mus musculus, UniProt P41593); assay: cAMP increase in MC3T3-EI osteoblast-like cells (biological activity in vitro); assay type: cell-based; settings: 1 nM analogue, room temperature for 30 minutes, total cAMP by radioimmunoassay
T1 construct: a mouse cranial bone-derived osteoblast-like cell strain, MC3T3-EI cells; endogenous in cells; host or cells: MC3T3-E1 mouse osteoblast-like cells
T1 sequence (P41593 27-591): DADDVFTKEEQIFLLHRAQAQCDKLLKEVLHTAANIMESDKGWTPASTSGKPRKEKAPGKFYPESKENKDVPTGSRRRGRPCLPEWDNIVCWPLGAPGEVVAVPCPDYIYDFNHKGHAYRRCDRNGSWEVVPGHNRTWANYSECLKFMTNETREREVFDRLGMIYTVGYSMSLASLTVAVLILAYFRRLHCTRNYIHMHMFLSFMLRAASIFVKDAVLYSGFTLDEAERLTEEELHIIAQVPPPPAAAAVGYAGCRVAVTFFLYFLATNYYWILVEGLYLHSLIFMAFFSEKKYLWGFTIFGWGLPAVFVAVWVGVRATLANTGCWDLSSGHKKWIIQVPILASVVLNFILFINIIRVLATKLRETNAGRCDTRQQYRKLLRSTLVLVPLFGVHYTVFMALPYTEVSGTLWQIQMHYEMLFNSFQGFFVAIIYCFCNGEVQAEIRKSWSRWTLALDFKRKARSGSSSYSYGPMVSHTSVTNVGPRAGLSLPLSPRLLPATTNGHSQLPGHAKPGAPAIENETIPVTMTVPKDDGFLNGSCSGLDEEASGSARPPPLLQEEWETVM
Protocol: The biological activity of the PTH(1-34) peptide analogues was evaluated by the method reported by Shigeno et al., The Journal of Biological Chemistry, 263, 18369-18377 (1988) with a modification. A culture solution (Hank's solution, containing 20 mM N-2-hydroxyethylpiperazine-N'-2-ethanesulfonic acid (HEPES), 0.1% bovine serum albumin and 0.5 mM isobutylmethyl-xanthine) containing a 0.01, 0.1, 1, 10 or 100 nM peptide derivative was added in an amount of 100 μl to a mouse cranial bone-derived osteoblast-like cell strain, MC3T3-EI cells, cultivated on a 96-well multiplate (Nunclon, Nunc), followed by reaction at room temperature for 30 minutes. After addition of 100 μl of 0.2N hydrochloric acid, the plate was immersed in boiling water for 2.5 minutes to extract cyclic adenosine monophosphate (cAMP) produced by a PTH receptor from the cells. The total cAMP in the culture solution and the cells was assayed using a commercial radioimmunoassay kit (cyclic AMP [^125 I] kit "Du Pont-Daiichi", Daiichi Kagaku Yakuhin). For the biological activity of the PTH(1-34) peptide derivatives, increases in cAMP caused by 1 nM analogues are shown in Table 3.

Row | SMILES | bone increase [1] [mg] | cAMP increase [2] [pmol/well]
1 | CC[C@H](C)[C@H](NC(=O)[C@H](CCC(=O)O)NC(=O)[C@H](CO)NC(=O)[C@@H](NC(=O)[C@@H](N)CO)C(C)C)C(=O)N[C@@H](CCC(N)=O)C(=O)N[C@@H](CC(C)C)C(=O)N[C@@H](CCSC)C(=O)N[C@@H](Cc1c[nH]cn1)C(=O)N[C@@H](CC(=O)O)C(=O)N[C@@H](CC(C)C)C(=O)NCC(=O)N[C@@H](CCCCN)C(=O)N[C@@H](Cc1c[nH]cn1)C(=O)N[C@@H](CC(C)C)C(=O)N[C@@H](CC(N)=O)C(=O)N[C@@H](CO)C(=O)N[C@@H](CCSC)C(=O)N[C@@H](CCC(=O)O)C(=O)N[C@@H](CCCNC(=N)N)C(=O)N[C@H](C(=O)N[C@@H](CCC(=O)O)C(=O)N[C@@H](Cc1c[nH]c2ccccc12)C(=O)N[C@@H](CC(C)C)C(=O)N[C@@H](CCCNC(=N)N)C(=O)N[C@@H](CCCCN)C(=O)N[C@@H](CCCCN)C(=O)N[C@@H](CC(C)C)C(=O)N[C@@H](CCC(N)=O)C(=O)N[C@@H](CC(=O)O)C(=O)N[C@H](C(=O)N[C@@H](Cc1c[nH]cn1)C(=O)N[C@@H](CC(N)=O)C(=O)N[C@@H](Cc1ccccc1)C(=O)O)C(C)C)C(C)C [(3), [Asp^10] hPTH(1-34)] | 26.1 | 0.60
2 | CC[C@H](C)[C@H](NC(=O)[C@H](CCC(=O)O)NC(=O)[C@H](CO)NC(=O)[C@@H](NC(=O)[C@@H](N)CO)C(C)C)C(=O)N[C@@H](CCC(N)=O)C(=O)N[C@@H](CC(C)C)C(=O)N[C@@H](CCSC)C(=O)N[C@@H](Cc1c[nH]cn1)C(=O)N[C@@H](CCC(=O)O)C(=O)N[C@@H](CC(C)C)C(=O)NCC(=O)N[C@@H](CCCCN)C(=O)N[C@@H](Cc1c[nH]cn1)C(=O)N[C@@H](CC(C)C)C(=O)N[C@@H](CC(N)=O)C(=O)N[C@@H](CO)C(=O)N[C@@H](CCSC)C(=O)N[C@@H](CCC(=O)O)C(=O)N[C@@H](CCCNC(=N)N)C(=O)N[C@H](C(=O)N[C@@H](CCC(=O)O)C(=O)N[C@@H](Cc1c[nH]c2ccccc12)C(=O)N[C@@H](CC(C)C)C(=O)N[C@@H](CCCNC(=N)N)C(=O)N[C@@H](CCCCN)C(=O)N[C@@H](CCCCN)C(=O)N[C@@H](CC(C)C)C(=O)N[C@@H](CCC(N)=O)C(=O)N[C@@H](CC(=O)O)C(=O)N[C@H](C(=O)N[C@@H](Cc1c[nH]cn1)C(=O)N[C@@H](CC(N)=O)C(=O)N[C@@H](Cc1ccccc1)C(=O)O)C(C)C)C(C)C [(4), [Glu^10] hPTH(1-34)] | 31.1 | 1.81
3 | CC[C@H](C)[C@H](NC(=O)[C@H](CCC(=O)O)NC(=O)[C@H](CO)NC(=O)[C@@H](NC(=O)[C@@H](N)CO)C(C)C)C(=O)N[C@@H](CCC(N)=O)C(=O)N[C@@H](CC(C)C)C(=O)N[C@@H](CCSC)C(=O)N[C@@H](Cc1c[nH]cn1)C(=O)N[C@@H](CC(=O)O)C(=O)N[C@@H](Cc1ccccc1)C(=O)NCC(=O)N[C@@H](CCCCN)C(=O)N[C@@H](Cc1c[nH]cn1)C(=O)N[C@@H](CC(C)C)C(=O)N[C@@H](CC(N)=O)C(=O)N[C@@H](CO)C(=O)N[C@@H](CCSC)C(=O)N[C@@H](CCC(=O)O)C(=O)N[C@@H](CCCNC(=N)N)C(=O)N[C@H](C(=O)N[C@@H](CCC(=O)O)C(=O)N[C@@H](Cc1c[nH]c2ccccc12)C(=O)N[C@@H](CC(C)C)C(=O)N[C@@H](CCCNC(=N)N)C(=O)N[C@@H](CCCCN)C(=O)N[C@@H](CCCCN)C(=O)N[C@@H](CC(C)C)C(=O)N[C@@H](CCC(N)=O)C(=O)N[C@@H](CC(=O)O)C(=O)N[C@H](C(=O)N[C@@H](Cc1c[nH]cn1)C(=O)N[C@@H](CC(N)=O)C(=O)N[C@@H](Cc1ccccc1)C(=O)O)C(C)C)C(C)C [(5), [Asp^10, Phe^11] hPTH(1-34)] (H-SVSEIQLMHDFGKHLNSMERVEWLRKKLQDVHNF-OH) | 20.4 | 2.58
